Reference: US20020142347A1, “Biosensor” (BIOSENSOR ApS, priority 2000, published 2002)

Target: T1, FACI-24 (Bos taurus, UniProt P07107, M25C)
T1 construct: made in house; host or cells: E. coli BL21(DE3)pLysS, pET3a vector
T1 sequence (P07107 2-87 M25C): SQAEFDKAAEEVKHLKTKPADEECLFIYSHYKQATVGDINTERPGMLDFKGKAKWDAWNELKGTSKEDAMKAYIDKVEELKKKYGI
Test: Fluorescence titration equilibrium binding analysis of CoA and acyl-CoA esters to FACI-24
Set-up: species or system bovine
Details: FACI-24 (1.5 μM) titrated with increasing CoA and acyl-CoA concentration; fitted binding curves, emission 460 nm; read-out: Kd (nM) ± S.E.
Description: Development of a mathematical expression describing the relationship between acyl-CoA concentration and FACI-24 fluorescence was performed essentially as by Richieri et al 1992, J Biol Chem, 267:23495-23501. However, where ligand binding to ADIFAB induces both a fluorescence intensity increase around 505 nm and a fluorescence intensity decrease around 432 nm, ligand binding to FACI-24 only causes an increase in fluorescence around 460 nm.
Derivatisation of an expression for the fluorescence value as a function of the acyl-coA concentration was done using the Scatchard equation as a starting point: [formula]
which has been used to fit the titration data.
The curves represent the best fit analysis from two independent experiment calculated and normalized as described above. The FACI-24 binding affinity increases dramatically when the acyl-chain length increases from C8 to C10 and C12, a smaller but significant drop in Kd is seen by increasing chain length from C12 to C14. C14 to C18 saturated acyl-CoA esters and C18:1-CoA binds with similar and very high affinities to FACI-24. In >0.1 M salt, FACI-24 binds acyl-CoAs with higher affinity and similar specificity as native unmodified bovine ACBP. The Kd for binding of C12-CoA and C16-CoA to native ACBP is 40 and 2.0 nM, respectively (Fulcery et al Biochemical, 1997, 325:423-428; Færgeman et al 1996, Biochemistry, 35:14118-14126). FACI-24 is highly specific for binding long-chain acyl-CoA esters.
Titration of FACI with acyl-CoAs was done using a SPEX FLOUROLOG (Industries Inc, Edison N.J., USA) with excitation at 387 nm and emission at 460 nm, with both excitation and emission slits set to 4.5 nm. FACI (0.5-4.5 uM, as indicated) was dissolved in 1.5 ml binding buffer (10 mM HEPES 150 mM NaCl, 5 mM KCl, 1 mM Na2HPO4, pH 7.4) and titrated with a 10 μM acyl-CoA dissolved in binding buffer, with or without FACI added, as indicated. Fluorescence emission values (counts per second) measured without FACI added to the ligand stock solution were corrected for titrand dilution.
Up to four parameters were fitted in this way, these were B, representing the point of saturation on the X axis, H, representing the maximum fluorescence, i.e. the fluorescence at saturating concentration of acyl-CoA, L, the minimum fluorescence value, i.e. the fluorescence of FACI-24 alone in buffer, and K, the Kd value lor the acyl-CoA in question. Initial estimates for the fittable parameters were typically: B=1, H=maximum fluorescence value measured, L=minimum fluorescence value measured (at acyl-CoA-concentration=0), and K as judged from the raw data, typically from 0.0001 uM to 0.1 uM for acyl-CoA longer than C10:0-CoA.
For each acyl-CoA at least two titrations and fittings were performed. To consider two or more titrations of the same acyl-CoA together and obtain a Kd value using all these titrations, both axes of the raw data were standardised using the fitted values of B, H and L in this way:
X axis standard=(raw X axis values)/Bfitted
Y axis standard=[(raw Y axis values)−Lfitted]/[Hfitted−Lfitted]
In this way all Y axis values should come to lie between 0 and 1 and the X axis value should be 1 at the point of saturation (FACI-24:acyl-CoA 1:1). Such adjusted data were pooled and fitted using DataFit. Typically, both H and B fitted to values close to 1 and L fitted to values close to 0. K was typically fitted to values somewhere between the two values obtained for the raw data.
This could be overcome by removing B from the fittable parameters list and instead setting it to a constant value of 1 and fitting again. This was typically done for both the raw and the standardised data.

CCCCCCCCCCCCCCCC(=O)SCCNC(=O)CCNC(=O)[C@H](O)C(C)(C)COP(=O)(O)OP(=O)(O)OC[C@H]1O[C@@H](n2cnc3c(N)ncnc32)[C@H](O)[C@@H]1OP(=O)(O)O [C16:0-CoA, palmitoyl-CoA] gave a Kd of 0.65 ± 0.26 nM.
